Legend:
ddy male mice = assay: Effects on sleeping time (pentobarbital-induced); format: in vivo, mouse (ddy male); settings: 10 mg/kg oral, 1 hour before pentobarbital (50 mg/kg i.p.), n=10, control 46.6 ± 3.8, ** p < 0.01 relative to the control (marked for loratadine only)
Procedure: (5) Effects on sleeping time Animals used in groups were ddy male mice, each group consisting of ten mice. After fasted for 24 hours, they were orally administered with a test compound. Upon an elapsed time of 1 hour after the oral administration, pentobarbital (50 mg/kg) was intraperitoneally administered and the sleeping time was measured. Statistical evaluation was performed by one-way analysis of variance, followed by the Turkey test for multiple comparison.

Acute toxicity = settings: mouse, in vivo; oral, ICR mice
Source text: The invention compound (Compound No. 1) was orally administered to ICR mice.

[1] = system: isolated guinea pig ileum; assay: Antihistamine selectivity determined from experiments (1) and (2); format: cell-based; settings: determined from results of experiments (1) antihistaminergic and (2) antiacetylcholinergic action
Procedure: (§1) After a Hartley male guinea pig was sacrificed under ether anesthesia and exsanguination, the ileum was immediately isolated and a preparation was prepared. The preparation was suspended in a 20 ml Magnus bath containing 32° C. Tyrode solution (95% O2 -5% CO2 saturation) and was placed under resting tension of 1 g. The isometrical changes of the muscular tension produced were recorded on the polygraph through the force displacement transducer.
(3) Antihistamine selectivity
From the results of the above experiments (1) and (2), the antihistamine selectivity was determined in accordance with the following formula. [formula]

[2] = system: isolated guinea pig ileum; assay: Antihistaminergic action on the isolated guinea pig ileum (histamine-induced contraction); format: cell-based, guinea pig (Hartley male); settings: Cavia porcellus
Procedure: (1) Antihistaminergic action on the isolated guinea pig ileum
as §1

[3] = system: isolated guinea pig ileum; assay: Antiacetylcholinergic action on the isolated guinea pig ileum (acetylcholine-induced contraction); format: cell-based, guinea pig (Hartley male); settings: Cavia porcellus
Procedure: as §1
(2) Antiacetylcholinergic action on the isolated guinea pig ileum

[4] = system: histamine-induced dermovascular penetration increase; assay: Effect on histamine-induced dermovascular penetration increase; format: in vivo, guinea pig (5-week old); settings: Cavia porcellus, 0.5 h; oral, 60 minutes before intradermal histamine (1 μg); blue spot area at 30 min; guinea pig; read-out: ID50 (the source's name)
Procedure: (4) Effect on histamine-induced dermovascular penetration increase In a shaved dorsal skin of a guinea pig (5-week old), 0.1 ml (1 μg) of histamine was intradermally injected. […] Thirty minutes later, the animal was sacrificed under exsanguination and was evaluated by square of the shortest and the longest diameters of the blue spot (histamine-injected site). Each test compound was orally administered 60 minutes before the injection of histamine.

Row | SMILES | Sleeping time (ddy male mice) | LD50 (Acute toxicity) | Antihistamic selectivity [1] | IC50 ([2]; vs histamine (10^-5 M)-induced contraction, isolated guinea pig ileum, 32° C. Tyrode solution, read-out: IC50) | IC50 ([3]; vs acetylcholine (3×10^-5 M), isolated guinea pig ileum, read-out: IC50) | ED50 [4] | IC50 [2] | IC50 [3]
1 | CN1CCC(=C2c3ccc(C#N)cc3CCc3cccnc32)CC1 [Compound No. 1, 8-Cyano-11-(1-methyl-4-piperidylidene)-6,11-dihydro-5H-benzo[5,6]-cyclohepta[1,2-b]pyridine] | 62.9 ± 5.8 min | 657 mg/kg | 3212 | 0.0151 µM | 48.5 µM | 0.012 mg/kg | – | –
2 | CCOC(=O)N1CCC(=C2c3ccc(Cl)cc3CCc3cccnc32)CC1 [Loratadine] | 75.7 ± 5.8 min | – | 190 | – | – | 0.534 mg/kg | 0.123 µM | 23.4 µM
3 | CC(C)(C)c1ccc(C(O)CCCN2CCC(C(O)(c3ccccc3)c3ccccc3)CC2)cc1 (stereo not drawn) [Terfenadine] | – | – | – | – | – | 3.34 mg/kg | – | –
